The source of these data is patent US20250170111A1, “PYRIDINE BASED CHALCONE ANALOGS AS THERAPEUTIC AGENTS AND USE THEREOF” (QATAR UNIVERSITY, priority 2023, published 2025).

Like-named read-outs stand apart in the source and are kept apart here.

One data set relates to Bax, Bcl-2. In words: Western blot of apoptosis-related proteins in PC3 and DU145. The settings on record: PC3 and DU145, 48 hours of treatment. (A western blot detects proteins with antibodies after separation by electrophoresis.)
For data set [1], the system named is DU145. In words: Alamar Blue cell viability assay, DU145. The settings on record: Homo sapiens, DU-145, 48 h, read-out: DU145 IC50. Background: Resazurin is reduced to fluorescent resorufin, in cell work by metabolically active cells.
The subject of data set [2] is DU145. In words: Cell cycle analysis (PI flow cytometry), DU145. The class given is cell-based, human. Conditions: DU145, 48 hours; not statistically significant (P>0.05). Here is the method: Cells were seeded in 100 mm Petri dishes at a density of 1.5 million cells/dish and incubated in RPMI supplemented with 10% FBS overnight at 37° C. Complete culture media was then removed, and cells were starved in serum serum-free for 16 hours to synchronize cells at the G0/G1 phase of the cell cycle. Subsequently, cells were treated with the compounds 13, 15, and 16 or docetaxel for 48 hours. After treatment, floating and adherent cells were collected, washed with ice-cold PBS and centrifuged at 500 g for 10 minutes at 4° C. Next, cells were fixed with ice-cold 70% ethanol added drop wisely while vertexing and stored at −20° C. for at least 24 hours. On the day of analysis, cells were pelleted (centrifuged at 800 g for 10 minutes at 4° C.), washed twice with ice-cold PBS and counted. Around one million cells of each sample were resuspended in 500 μl of FxCycle PI/RNase Staining Solution® (Thermo Fisher Scientific, USA) supplemented with 200 μg/ml RNase and incubated for 50 minutes at 37° C. in a shaking water bath, protected from light. Following incubation, cells were immediately analyzed by BD FACSAria™ II Flow Cytometer, at least 50,000 events were acquired for each sample. The proportion of cells in each cell cycle phase: […]

Data set [3] has as its system PC3 and DU145. As to the kind of experiment: Wound healing assay, PC3 and DU145. The settings on record: both cell lines; significant from 5 μM in PC3.
The test system of data set [4] is primary human dental bulb cells (ND). In words: Alamar Blue cell viability, normal primary dental cells. The settings on record: 48 hours, Mean ± SEM.
Another data set concerns C4-2 and LNCaP. In words: Morphological examination, AR-positive PCa cell lines. The class given is cell-based. As for the experimental part: Cells were seeded in 6 wells plate at a density of 150,000-200,000 cells/well and were incubated overnight. […] Morphological changes were monitored using a DMi8 inverted microscope (Leica, Germany) and images were captured with a Leica MC170 HD camera.

For data set [5], the system named is PC3 and DU145. In words: Alamar Blue cell viability, AR-negative PCa cell lines (stated for both). Conditions: Homo sapiens, DU-145, read-out: IC50 against PC3 and DU145 cell lines.
Data set [6] deals with PC3 and DU145. As to the kind of experiment: Soft agar colony formation assay, PC3 and DU145 (stated for both). The settings on record: 5 and 10 μM, 14 days, both cell lines. The class given is cell-based, human. As for the experimental part: Anchorage-independent growth, a characteristic of transformed cells that correlate with in vivo tumorigenic potential, was assessed by soft agar assay. First, a 2% noble agar (Sigma-Aldrich) stock solution was prepared in deionized and autoclaved water. […] After 14 days, the average number of colonies in each well was counted manually under the microscope and confirmed by ImageJ; only colonies with an area larger than […] were counted to avoid the inclusion of non-proliferating dead cells. Besides, the size of colonies in each treatment condition was measured by ImageJ from at least six random fields per well.

A further data set has as its system PC3. In words: Alamar Blue cell viability assay, PC3. The settings on record: for IC50: read-out: PC3 IC50, 48 hours, Mean ± SEM of three independent experiments.
A further data set deals with JNK1/2/3, ERK1/2, Akt. As to the kind of experiment: Western blot of JNK, ERK and AKT-related biomarkers in PC3. Conditions: PC3 cell line.
Data set [7] deals with MCF 10A. In words: Alamar Blue cell viability, normal breast epithelial cell line.
The test system of another data set is MDA-MB-436. As to the kind of experiment: Alamar Blue cell viability assay, MDA-MB-436. Format: cell-based. The settings on record: Homo sapiens, Mean ± SEM, read-out: IC50 against MDA-MB-436. From the text: (§1) Besides, the effect of these analogs was compared to docetaxel, a first-line chemotherapy, as a positive control.
A further data set deals with MDA-231 and MDA-436. As to the kind of experiment: Morphological examination, TNBC cell lines. The class given is cell-based, human. Conditions: 24 and 48 hours post treatment. As for the experimental part:
Cells were seeded in 6 wells plate at a density of 150,000-200,000 cells/well and were incubated overnight. Then, cells were treated with the synthesized compounds at 5-10 μM concentration for 48 hours. Morphological changes were monitored using a DMi8 inverted microscope (Leica, Germany) and images were captured with a Leica MC170 HD camera.

The test system of data set [8] is MDA-MB-231. In words: Alamar Blue cell viability assay, MDA-MB-231. The class given is cell-based. Conditions: Homo sapiens, Mean ± SEM, read-out: IC50 against MDA-MB-231.
Text: as §1

The subject of data set [9] is MDA-MB-231 and MDA-MB-436. As to the kind of experiment: Alamar Blue cell viability, TNBC cell lines (stated for both). The class given is cell-based. The settings on record: Homo sapiens.
Text: as §1

For data set [10], the system named is MDA-MB-231. As to the kind of experiment: Wound healing assay, MDA-MB-231. Format: cell-based, human.
Data set [11] deals with MDA-MB-231 and MDA-MB-436. In words: Soft agar colony formation assay, TNBC cell lines. The settings on record: 28 days. The class given is cell-based, human.
The subject of data set [12] is MCF 10A. Conditions: selectivity index.
Data set [13] deals with PC3 and DU145. As to the kind of experiment: Cell cycle analysis (PI flow cytometry), PC3 and DU145. The class given is cell-based, human. Conditions: 48 hours. As for the experimental part:
The compounds' effect on cell cycle distribution of PC3 and DU145 was assessed by flow cytometry using propidium iodide (PI). Cells were seeded in 100 mm Petri dishes at a density of 1.5 million cells/dish and incubated in RPMI supplemented with 10% FBS overnight at 37° C. Complete culture media was then removed, and cells were starved in serum serum-free for 16 hours to synchronize cells at the G0/G1 phase of the cell cycle. Subsequently, cells were treated with the compounds 13, 15, and 16 or docetaxel for 48 hours. After treatment, floating and adherent cells were collected, washed with ice-cold PBS and centrifuged at 500 g for 10 minutes at 4° C. Next, cells were fixed with ice-cold 70% ethanol added drop wisely while vertexing and stored at −20° C. for at least 24 hours. On the day of analysis, cells were pelleted (centrifuged at 800 g for 10 minutes at 4° C.), washed twice with ice-cold PBS and counted. […] Following incubation, cells were immediately analyzed by BD FACSAria™ II Flow Cytometer, at least 50,000 events were acquired for each sample. The proportion of cells in each cell cycle phase: G1, S and G2-M was determined using FlowJo software based on cells' DNA content as represented by histograms of PI signal intensity.

[14] abbreviates: range over both TNBC cell lines, read-out: IC50 against MDA-MB-231 and MDA-MB-436 cell lines.

In general, IC50 refers to the point on the concentration scale where inhibition reaches its midpoint.

Turning to `COc1cc2c(cc1OC)C(=O)/C(=C/c1ccc(-c3ccsc3)nc1)CC2` [Compound 13, (E)-6,7-dimethoxy-2-((6-(thiophen-3-yl)pyridin-3-yl)methylene)-3,4-dihydronaphthalen-1 (2H)-one], the Bax/Bcl-2 expression result with Bax, Bcl-2 was “significant increase in Bax/Bcl-2 ratio”. Also, the IC50 in the data set with DU145 [1] was 5.63 ± 1.07 µM; in the data set with PC3 and DU145 [5] it was 4.32 to 6.47 µM; with PC3, 5.6 ± 0.38 µM. Also, the “effect on cell cycle distribution” value in the data set with DU145 [2] was “slight accumulation in G2/M and sub G1 phases”. In addition, the wound closure result in the data set with PC3 and DU145 [3] is on record as “dose-dependent reduction in wound closure”. Further, the “ND LD50” value in data set [4] is over 50.0 µM. Also, the “effect on cell morphology” value in the data set on C4-2 and LNCaP was “lose their shape, shrink in size, and increased cell death”. Besides, the “colony formation in soft agar (number and size)” value (“colony formation in soft agar” below) in the data set on PC3 and DU145 [6] was “significant reduction in both the total number of colonies and average colony size”.

For `COc1ccc2c(c1)C(=O)/C(=C/c1cccc(-c3ccsc3)n1)CC2` [Compound 15, (E)-7-methoxy-2-((6-(thiophen-3-yl)pyridin-2-yl)methylene)-3,4-dihydronaphthalen-1 (2H)-one], in the data set on Bax, Bcl-2, the Bax/Bcl-2 expression entry was “significant increase in Bax/Bcl-2 ratio”. In addition, the IC50 with DU145 [1] was 6.47 ± 0.57 µM; in the data set on PC3 and DU145 [5], 4.32 to 6.47 µM; in the data set with PC3, 6.6 ± 0.49 µM. The “effect on cell cycle distribution” value in the data set on DU145 [2] was “slight accumulation in G2/M and sub G1 phases”. For the same molecule, the wound closure result in the data set on PC3 and DU145 [3] is listed as “dose-dependent reduction in wound closure”. Further, in data set [4], the “ND LD50” value was over 50.0 µM. Further, the “expression of JNK1/2/3, ERK1/2, Akt and phosphorylated forms” value with JNK1/2/3, ERK1/2, Akt is “reduced the expression of JNK1/2/3, p-ERK1/2, Akt and p-Akt”.

Consider `COc1ccccc1C(=O)/C=C/c1cccc(-c2ccsc2)n1` [Compound 17, (E)-1-(2-methoxyphenyl)-3-(6-(thiophen-3-yl)pyridin-2-yl) prop-2-en-1-one], for which the “selectivity versus normal cells (MCF10a)” value with MCF 10A [7] is listed as “greater selectivity towards cancerous cell lines”. Also, the IC50 in the data set on MDA-MB-436 (24 hrs. post treatment) was 3.2 ± 0.2 µM; in the data set on MDA-MB-436 (48 hrs. post treatment), 1.6 µM; with MDA-MB-231 [8] (24 hrs. post treatment), 3.6 ± 0.5 µM; in the data set on MDA-MB-231 [8] (48 hrs. post treatment), 3.2 µM; in [9] (setting [14]), 0.87 to 3.2 µM. Besides, in the data set with MDA-231 and MDA-436, the “effect on cell morphology” value was “lose their shape, shrink in size, form apoptotic bodies, and increased cell death”. The “cell migration of MDA-MB-231 (wound healing)” value in the data set on MDA-MB-231 [10] is “significantly reduced cell migration”. Also, the “colony formation in soft agar” value in [11] was “significant reduction in both the total number of colonies and average colony size”. In addition, the “reduction in cell viability of PC3” value in the data set with PC3 (2.5 μM) turned out to be 84.7%.

In the case of `CS(=O)(=O)c1ccc(C(=O)/C=C/c2cccc(-c3ccsc3)n2)cc1` [Compound 23, (E)-1-(4-(methylsulfonyl)phenyl)-3-(6-(thiophen-3-yl)pyridin-2-yl) prop-2-en-1-one], the “colony formation in soft agar” value in data set [11] is “significant reduction in both the total number of colonies and average colony size”.

`O=C(/C=C/c1cccc(-c2ccsc2)n1)c1ccccc1C(F)(F)F` [Compound 25, (E)-3-(6-(thiophen-3-yl)pyridin-2-yl)-1-(2-(trifluoromethyl)phenyl) prop-2-en-1-one]: the “selectivity versus normal cells (MCF10a)” value with MCF 10A [7] (MDA-231 and MDA-436 vs MCF10a) is recorded as “greater selectivity towards cancerous cell lines”. For the same molecule, the “Effect on non-tumorigenic epithelial cell line MCF 10A” value in the data set on MCF 10A [7] (after 48 hrs.) amounted to 3.44 ± 0.4 µM. Also, in the data set on MCF 10A [12], the “SI of MCF 10A/MDA-MB231” value turned out to be 1.8. The “SI of MCF 10A/MDA-MB436” value in the data set with MCF 10A [12] was 3.9. Further, the IC50 was 2.4 ± 0.2 µM with MDA-MB-436 (24 hrs. post treatment); 0.87 µM with MDA-MB-436 (48 hrs. post treatment); 3.5 ± 1.47 µM with MDA-MB-231 [8] (24 hrs. post treatment); 2.1 µM in the data set with MDA-MB-231 [8] (48 hrs. post treatment); 0.87 to 3.2 µM in data set [9] (setting [14]); 0.87 to 2.1 µM in data set [9] (range, unit inferred, read-out: IC50 (TNBC cell lines)). Moreover, the “effect on cell morphology” value with MDA-231 and MDA-436 was “lose their shape, shrink in size, form apoptotic bodies, and increased cell death”. In addition, the “cell migration of MDA-MB-231 (wound healing)” value with MDA-MB-231 [10] (dose-dependent) is “significantly reduced cell migration”.

Turning to `CC(=O)O[C@@]12CO[C@@H]1C[C@H](O)[C@@]1(C)C(=O)[C@H](O)C3=C(C)[C@@H](OC(=O)[C@H](O)[C@@H](NC(=O)OC(C)(C)C)c4ccccc4)C[C@@](O)([C@@H](OC(=O)c4ccccc4)[C@H]21)C3(C)C` [docetaxel, reference compound], the IC50 in the data set with MDA-MB-436 (24 hrs. post treatment) was 11.9 ± 2.7 µM; in the data set with MDA-MB-436 (48 hrs. post treatment) it was 9.8 ± 2 µM; in the data set with MDA-MB-231 [8] (24 hrs. post treatment), 11 ± 1.7 µM; in the data set on MDA-MB-231 [8] (48 hrs. post treatment), 6.43 ± 0.6 µM. In addition, in the data set with PC3 and DU145 [13], the “increase of G2/M phase as compared to control” value is on record as 1.9-2.6 folds.
